“Also recorded” adds a separate entry of the source. Where two headings read alike, the source gives them in different places.
Key:
CntA [1] = molecular target: T1, CntA (Acinetobacter baumannii, UniProt D0C9N6); assay: Inhibitory IC50 determination against CntA (UV-visible enzyme assay); assay type: biochemical
T1 construct: made in house; host or cells: Escherichia coli BL21(DE3)pLysS
T1 sequence (D0C9N6 1-371): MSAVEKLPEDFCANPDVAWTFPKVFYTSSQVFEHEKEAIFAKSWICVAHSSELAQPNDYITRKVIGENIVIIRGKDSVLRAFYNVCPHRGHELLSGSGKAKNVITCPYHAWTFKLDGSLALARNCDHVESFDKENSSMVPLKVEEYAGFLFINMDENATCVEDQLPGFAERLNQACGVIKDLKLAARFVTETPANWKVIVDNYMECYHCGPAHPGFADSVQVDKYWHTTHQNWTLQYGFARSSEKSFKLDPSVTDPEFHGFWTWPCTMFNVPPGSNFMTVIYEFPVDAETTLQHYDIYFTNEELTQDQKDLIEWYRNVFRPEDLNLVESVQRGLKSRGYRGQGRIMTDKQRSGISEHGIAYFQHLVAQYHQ
Protocol: (§1) All activity assays were performed on a BMG FLOUstar Omega 96-well plate reader, set at wavelength 340 nm with a sample volume of 200 μl. The assay comprised combining mixture A 60 μg CntA and 60 μg CntB with mixture B 0.25 mM L-carnitine and 0.25 mM NADH in a 10 mM Hepes buffer, pH 7.6 with 250 mM NaCl and 0.5 mM TCEP. […] The reactions were measured for 5 min recording the linear decrease of signal at 340 nm for NADH oxidation. The slope of the line was measured between 60 and 120 s to yield the rate.
Compounds in the Pathogen Box (https://www.mmv.org/mmv-open/pathogen-box/about-pathogen-box) were received as 10 mM stocks dissolved in dimethylsulfoxide (DMSO). The compounds were added such that the final concentration was 50 μM in the 200-μl reaction. As per the “UV-visible enzyme assays” methodology above, the protein in mixture A was incubated with inhibitor compounds for 20 min before commencing the assay.
[…]. For each concentration, four replicates were carried out. IC50 values were determined using a built-in “Dose Response Inhibition” – [Inhibitor] versus response model in Prism 8 for macOS v8.2.0.

[2] = tested on: TMA production in A. baumannii cells; assay: Evaluation of inhibitors in A. baumannii cell culture (TMA production from carnitine); assay type: cell-based, Acinetobacter baumannii; conditions: inhibitor 200 μM; carnitine 1 mM; 37 °C, 1 h; N = 3
Protocol: A. baumannii cells were cultured overnight in the M9 minimal media at 37 °C with 10 mM L-carnitine as the sole carbon source. The cells were then collected by centrifugation and washed twice in a buffer containing 10 mM Hepes, 1 mM NaCl (pH 7.6). After wash, the cells were resuspended in the same buffer to a density of OD600 of 0.4. […]. These cells with appropriate treatments were incubated at 37 °C for 1 h. The supernatant was then obtained by filtering through a 0.2-μm filter and analyzed by ion chromatography by quantifying TMA production and carnitine degradation as described previously ([13]).

CntA [3] = molecular target: T1, CntA; assay: Substrate profiling of carnitine analogs with CntA (structure–activity relationship); assay type: biochemical; conditions: substrate analogs tested as CntA substrates
Protocol: as §1

CutC = tested on: CutC; set-up: method as in PMID 30082863; conditions: irreversible covalent bond in the CutC catalytic site; cited from earlier work
[4] = substrate: C[N+](C)(C)CC(O)CC(=O)[O-]; assay: Michaelis–Menten kinetics of CntA (UV-visible NADH oxidation assay); assay type: biochemical, Acinetobacter baumannii; conditions: other: substrate of CntA; n = 4; pH 7.6
Protocol: as §1
(§2) Michaelis–Menten kinetic parameters were derived using the UV-visible enzyme assays methodology above. Substrate concentrations were varied from a top concentration of 2 mM and decreasing in a twofold manner for 10 successive dilutions. Observed rates were obtained from four independent measurements and fitted to a nonlinear regression Michaelis–Menten model in Prism 8 for macOS v8.2.0.

[5] = substrate: C[N+](C)(C)CCCC(=O)[O-]; assay: as above; assay type: biochemical, Acinetobacter baumannii; conditions: other: substrate of CntA; n = 4; pH 7.6
Protocol: as §1, §2

[6] = substrate: CCCC[N+](C)(C)C; assay: as above; assay type: biochemical, Acinetobacter baumannii; conditions: other: substrate of CntA; n = 4; pH 7.6
Protocol: as §1, §2

[7] = substrate: C[N+](C)(C)NCCC(=O)[O-]; assay: as above; assay type: biochemical, Acinetobacter baumannii; conditions: other: substrate of CntA; n = 4; pH 7.6
Protocol: as §1, §2

N#CS [SCN, thiocyanate]
IC50 (CntA [1]; dose response, N=3, read-out: IC50 (inhibition of CntA activity)): 35000 µM

Brc1cncc(-c2cc(NCCCn3ccnc3)nc(-c3ccccc3)n2)c1 [MMV3, 6-(5-bromopyridin-3-yl)-N-[3-(1H-imidazol-1-yl)propyl]-2-phenylpyrimidin-4-amine]
Effect on TMA formation from carnitine in A. baumannii culture [2]: significant reduction; also recorded: almost completely inhibited TMA formation
IC50 (CntA [1]): 1.1 µM

C[N+](C)(C)CC(O)CC(=O)[O-] (centres unmarked) [compound 1, Carnitine]
Oxidation by CntA (activity as substrate) (CntA [3]): oxidizing

C[N+](C)(C)CCCC(=O)[O-] [compound 2, γ-butyrobetaine]
Oxidation by CntA (activity as substrate) (CntA [3]): oxidizing

C[N+](C)(CF)CCO [FMC, N-(fluoromethyl)-2-hydroxy-N,N-dimethylethan-1-aminium]
EC50 (CutC): 0.056 µM

CCCC[N+](C)(C)C [compound 4, (1-Butyl)Trimethylammonium]
Oxidation by CntA (activity as substrate) (CntA [3]): can also oxidize

c1csc(-c2cnc3sc(NCC4CCOCC4)nn23)c1 [MMV1, N-[(oxan-4-yl)methyl]-5-(thiophen-2-yl)imidazo[2,1-b][1,3,4]thiadiazol-2-amine]
Effect on TMA formation from carnitine in A. baumannii culture [2]: did not reduce TMA production; also recorded: did not inhibit TMA formation
IC50 (CntA [1]): 5.8 µM

C[N+](C)(C)NCCC(=O)[O-] [compound 3, Meldonium]
Oxidation by CntA (activity as substrate) (CntA [3]): can also oxidize

B1: CntA (Acinetobacter baumannii ATCC 19606 = CIP 70.34 = JCM 6841) (protein)
chain: MSAVEKLPEDFCANPDVAWTFPKVFYTSSQVFEHEKEAIFAKSWICVAHSSELAQPNDYITRKVIGENIVIIRGKDSVLRAFYNVCPHRGHELLSGSGKAKNVITCPYHAWTFKLDGSLALARNCDHVESFDKENSSMVPLKVEEYAGFLFINMDENATCVEDQLPGFAERLNQACGVIKDLKLAARFVTETPANWKVIVDNYMECYHCGPAHPGFADSVQVDKYWHTTHQNWTLQYGFARSSEKSFKLDPSVTDPEFHGFWTWPCTMFNVPPGSNFMTVIYEFPVDAETTLQHYDIYFTNEELTQDQKDLIEWYRNVFRPEDLNLVESVQRGLKSRGYRGQGRIMTDKQRSGISEHGIAYFQHLVAQYHQ
notes: made in house; host or cells: Escherichia coli BL21(DE3)pLysS
Vmax [4]: 59.0 (± 3.1) nmol/min/mg
Vmax [5]: 76.06 (± 1.6) nmol/min/mg
Vmax [6]: 30.1 (± 3.4) nmol/min/mg
Vmax [7]: 43.8 (± 1.4) nmol/min/mg

Source: PMC7948474, “Structural basis of carnitine monooxygenase CntA substrate specificity, inhibition, and intersubunit electron transfer” (The Journal of Biological Chemistry, 2020)
